Several values for one entry are separate records, joined by “and”; a condition that tells them apart may be missing. Equal entries are not always repeated.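 Dose response: 5 concentrations. Exposure: 48 h. Format: 96-well plates. Endpoint: linear interpolation; highest concentration if not reached. GI50 is the concentration that inhibits growth by half. At the TGI there is no net growth.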
Assays:
Assay in all cases: NCI tumour cell line growth inhibition, 48 h
[1] = test system: HCT-116 colon
[2] = test system: XF 498 CNS
[3] = test system: MCF7 breast
[4] = test system: HOP-62 NSCLC
[5] = test system: MOLT-4 leukemia
[6] = test system: SN12C renal
[7] = test system: SF-295 CNS
[8] = test system: NCI-H522 lung
[9] = test system: SW-620 colon
[10] = test system: M19-MEL melanoma
[11] = test system: UACC-257 melanoma
[12] = test system: EKVX NSCLC
[13] = test system: SF-268 CNS
[14] = test system: P388/ADR leukemia
[15] = test system: OVCAR-3 ovarian
[16] = test system: DLD-1 colon
[17] = test system: IGROV1 ovarian
[18] = test system: K-562 leukemia
[19] = test system: UACC-62 melanoma
[20] = test system: KM12 colon
[21] = test system: P388 leukemia
[22] = test system: SF-539 CNS
[23] = test system: RXF 393 renal
[24] = test system: HCC-2998 colon
[25] = test system: CCRF-CEM leukemia
[26] = test system: NCI-H460 lung
[27] = test system: DMS 114 small cell lung
[28] = test system: SNB-19 CNS
[29] = test system: SK-MEL-28 melanoma
[30] = test system: DMS 273 small cell lung
[31] = test system: SK-OV-3 ovarian
[32] = test system: COLO 205 colon
[33] = test system: SK-MEL-2 melanoma
[34] = test system: NCI-H23 lung
[35] = test system: A498 renal
[36] = test system: SNB-75 CNS
[37] = test system: MALME-3M melanoma
[38] = test system: U251 CNS
[39] = test system: CAKI-1 renal
[40] = test system: KM20L2 colon
[41] = test system: A549 NSCLC
[42] = test system: RPMI-8226 leukemia
[43] = test system: SN12K1 renal
[44] = test system: UO-31 renal
[45] = test system: HT29 colon
[46] = test system: NCI/ADR-RES ovarian
[47] = test system: HOP-18 NSCLC
[48] = test system: OVCAR-5 ovarian
[49] = test system: HOP-92 NSCLC
[50] = test system: HL-60(TB) leukemia
[51] = test system: HCT-15 colon
[52] = test system: OVCAR-4 ovarian
[53] = test system: SK-MEL-5 melanoma
[54] = test system: OVCAR-8 ovarian
[55] = test system: NCI-H226 lung
[56] = test system: SNB-78 CNS
[57] = test system: LOX IMVI melanoma
[58] = test system: BT-549 breast
[59] = test system: RXF-631 renal
[60] = test system: DU-145 prostate
[61] = test system: T-47D breast
[62] = test system: MDA-N
[63] = test system: MDA-MB-231 breast
[64] = test system: ACHN renal
[65] = test system: 786-0 renal
[66] = test system: LXFL 529 NSCLC
[67] = test system: PC-3 prostate
[68] = test system: HS 578T breast
[69] = test system: TK-10 renal
[70] = test system: SR leukemia
[71] = test system: MDA-MB-435
[72] = test system: M14 melanoma

Structure (SMILES): O=C1NC(O)CCN1C1OC(CO)C(O)C1O (stereo not given)
- TGI [1]: > 141 µM
- TGI [2]: > 250 µM
- TGI [3]: > 250 µM
- TGI [4]: > 250 µM
- TGI [5]: > 250 µM
- TGI [6]: > 250 µM
- TGI [7]: > 250 µM
- TGI [8]: 247 µM
- TGI [9]: > 250 µM
- TGI [10]: > 250 µM
- TGI [11]: > 250 µM
- TGI [12]: > 250 µM
- TGI [13]: > 250 µM
- TGI [14]: > 250 µM
- TGI [15]: > 250 µM
- TGI [16]: > 250 µM
- TGI [17]: > 250 µM
- TGI [18]: > 250 µM
- TGI [19]: > 250 µM
- TGI [20]: > 250 µM
- TGI [21]: > 250 µM
- TGI [22]: > 250 µM
- TGI [23]: > 250 µM
- TGI [24]: > 250 µM
- TGI [25]: > 250 µM
- TGI [26]: > 250 µM
- TGI [27]: > 250 µM
- TGI [28]: > 250 µM
- TGI [29]: > 250 µM
- TGI [30]: > 250 µM
- TGI [31]: > 250 µM
- TGI [32]: > 250 µM
- TGI [33]: > 158 µM
- TGI [34]: > 250 µM
- TGI [35]: > 250 µM
- TGI [36]: > 250 µM
- TGI [37]: > 250 µM
- TGI [38]: > 169 µM
- TGI [39]: > 250 µM
- TGI [40]: > 127 µM
- TGI [41]: > 250 µM
- TGI [42]: > 250 µM
- TGI [43]: > 250 µM
- TGI [44]: > 250 µM
- TGI [45]: > 250 µM
- TGI [46]: > 250 µM
- TGI [47]: > 250 µM
- TGI [48]: > 145 µM
- TGI [49]: > 250 µM
- TGI [50]: > 250 µM
- TGI [51]: > 250 µM
- TGI [52]: > 250 µM
- TGI [53]: > 92 µM
- TGI [54]: > 250 µM
- TGI [55]: > 250 µM
- TGI [56]: > 250 µM
- TGI [57]: > 250 µM

Structure (SMILES): CC(C)=CCC1=C(O)c2ccccc2C(=O)C1=O
- TGI [1]: > 100 µM
- TGI [2]: > 100 µM
- GI50 [3]: 21.8 µM
- TGI [3]: > 100 µM
- TGI [4]: > 100 µM
- GI50 [6]: > 100 µM and 31.3 µM
- TGI [6]: > 100 µM
- GI50 [7]: > 100 µM and 22.7 µM
- TGI [7]: > 100 µM
- GI50 [8]: > 100 µM and 19.7 µM and 20.6 µM
- TGI [8]: > 100 µM
- GI50 [9]: > 100 µM and 34.6 µM and 22.9 µM
- TGI [9]: > 100 µM
- GI50 [10]: 48.5 µM and 20.8 µM
- TGI [10]: > 100 µM
- TGI [58]: > 100 µM
- GI50 [11]: > 100 µM and 28.6 µM
- TGI [11]: > 100 µM
- GI50 [12]: 57.7 µM
- TGI [12]: > 100 µM
- TGI [59]: > 100 µM
- GI50 [13]: > 100 µM and 11.8 µM
- TGI [13]: > 100 µM
- TGI [15]: > 100 µM
- GI50 [17]: > 100 µM and 46.2 µM and 14.8 µM
- TGI [17]: > 100 µM
- TGI [18]: > 100 µM
- GI50 [19]: > 100 µM and 13.4 µM
- TGI [19]: > 100 µM
- TGI [20]: > 100 µM
- TGI [22]: > 100 µM
- GI50 [60]: 23.5 µM
- TGI [60]: > 100 µM
- GI50 [23]: > 100 µM
- TGI [23]: > 100 µM
- TGI [61]: > 100 µM
- TGI [62]: > 100 µM
- TGI [24]: > 100 µM
- GI50 [63]: 21 µM
- TGI [63]: > 100 µM
- TGI [25]: > 100 µM and 18.5 µM
- TGI [64]: > 100 µM
- GI50 [65]: > 100 µM and 21.6 µM and 26.1 µM
- TGI [65]: > 100 µM
- TGI [26]: > 100 µM
- TGI [27]: > 100 µM
- GI50 [28]: > 100 µM and 16.4 µM and 29.4 µM
- TGI [28]: > 100 µM
- GI50 [29]: > 100 µM and 23 µM
- TGI [29]: > 100 µM
- GI50 [30]: 37.8 µM and 9.15 µM
- TGI [30]: > 100 µM
- GI50 [31]: > 100 µM and 47.7 µM
- TGI [31]: > 100 µM
- GI50 [32]: 18.4 µM and 52.3 µM and 28.8 µM
- TGI [32]: 37.5 µM and > 100 µM
- GI50 [66]: > 100 µM and 16.2 µM
- TGI [66]: > 100 µM
- TGI [67]: > 100 µM
- GI50 [33]: 68.7 µM
- TGI [33]: > 88.3 µM
- GI50 [34]: > 100 µM and 23.5 µM and 33.6 µM
- TGI [34]: > 100 µM and 69.7 µM
- TGI [35]: > 100 µM
- TGI [36]: > 100 µM
- GI50 [37]: > 100 µM and 35.1 µM and 20.4 µM
- TGI [37]: > 100 µM and 96.2 µM
- TGI [38]: > 100 µM
- TGI [39]: > 100 µM
- GI50 [40]: > 100 µM and 48.9 µM
- TGI [40]: > 100 µM
- TGI [68]: > 100 µM
- GI50 [69]: > 100 µM and 37.8 µM and 87.1 µM
- TGI [69]: > 100 µM
- GI50 [41]: > 100 µM and 17.3 µM and 16.6 µM
- TGI [41]: > 100 µM
- TGI [42]: > 100 µM
- GI50 [44]: > 100 µM
- TGI [44]: > 100 µM
- TGI [45]: > 100 µM
- GI50 [46]: 12.4 µM
- TGI [46]: > 100 µM
- TGI [47]: > 100 µM
- GI50 [48]: 56.2 µM
- TGI [48]: > 100 µM
- TGI [49]: > 100 µM
- TGI [70]: > 100 µM
- TGI [50]: > 100 µM
- TGI [51]: > 100 µM
- GI50 [71]: 21.8 µM
- TGI [71]: > 100 µM
- GI50 [52]: 11.7 µM
- TGI [52]: > 100 µM
- GI50 [53]: 11.2 µM
- TGI [53]: 27 µM and 28 µM
- GI50 [54]: > 100 µM and 26.7 µM and 20.8 µM
- TGI [54]: > 100 µM
- TGI [55]: > 100 µM
- GI50 [72]: > 100 µM and 45.8 µM and 16.3 µM
- TGI [72]: > 100 µM
- TGI [56]: > 100 µM
- TGI [57]: > 100 µM

Structure (SMILES): C=CC1(C)CC(=O)C2(O)C(C)(O1)C(OC(C)=O)C(O)C1C(C)(C)CCC(O)C12C (stereo not given)
- TGI [1]: > 150 µM
- TGI [2]: 142 µM
- TGI [3]: > 115 µM
- GI50 [4]: > 83.2 µM
- TGI [4]: > 150 µM
- GI50 [5]: > 91.2 µM
- TGI [5]: > 150 µM
- GI50 [6]: > 49 µM
- TGI [6]: > 102 µM
- TGI [7]: > 150 µM
- TGI [8]: > 150 µM
- TGI [9]: > 150 µM
- TGI [10]: > 127 µM
- TGI [11]: > 150 µM
- TGI [12]: > 150 µM
- TGI [13]: > 150 µM
- TGI [14]: > 84.4 µM
- TGI [15]: > 150 µM
- TGI [16]: > 150 µM
- GI50 [17]: > 77.2 µM
- TGI [17]: > 121 µM
- TGI [18]: > 150 µM
- TGI [19]: 101 µM
- GI50 [20]: 2.37 µM
- TGI [20]: > 150 µM
- TGI [21]: > 150 µM
- TGI [22]: > 150 µM
- GI50 [23]: 4.98 µM
- TGI [23]: 90.6 µM and > 119 µM
- TGI [24]: > 150 µM
- GI50 [25]: > 65.8 µM
- TGI [25]: > 150 µM
- TGI [26]: > 150 µM
- GI50 [27]: > 71.6 µM
- TGI [27]: > 108 µM
- TGI [28]: > 150 µM
- TGI [29]: > 150 µM
- TGI [30]: > 150 µM
- TGI [31]: > 120 µM
- TGI [32]: > 122 µM
- TGI [33]: > 150 µM
- TGI [34]: > 150 µM
- TGI [35]: > 150 µM
- GI50 [36]: 4.13 µM
- TGI [36]: > 150 µM
- TGI [37]: > 150 µM
- TGI [38]: > 94.6 µM
- GI50 [39]: > 55.2 µM
- TGI [39]: 58.8 µM
- TGI [40]: > 150 µM
- TGI [69]: > 34.6 µM
- TGI [41]: > 150 µM
- GI50 [42]: > 57.2 µM
- TGI [42]: 120 µM
- TGI [43]: > 150 µM
- GI50 [44]: > 72.5 µM
- TGI [44]: > 137 µM
- TGI [45]: > 150 µM
- TGI [46]: > 130 µM
- TGI [47]: > 138 µM
- TGI [48]: 45.5 µM
- GI50 [49]: 20.3 µM
- TGI [49]: > 150 µM
- TGI [50]: > 137 µM
- TGI [51]: > 150 µM
- TGI [52]: > 122 µM
- TGI [53]: > 102 µM
- TGI [54]: > 150 µM
- TGI [55]: > 72.8 µM
- TGI [56]: > 150 µM
- TGI [57]: > 150 µM

Reference: PubChem BioAssay (NCI)
